Results taken from US6600028B1, “Tricyclic base analogues” (Amersham Pharmacia Biotech UK Limited, priority 1997, dated 2003).
Like-named read-outs stand apart in the source and are kept apart here. One block for each molecule: values may come before it.

Experiments:
[1] = test system: terminal deoxynucleotidyl transferase; test: Oligonucleotide tailing reaction; assay type: biochemical; conditions: 64 μM dNTP or analogue triphosphate, 25 U enzyme, 90 minutes at 37° C.
Experimental: A 15 mer primer (sequence: 5′ TGC ATG TGC TGG AGA 3′) (SEQ ID NO. 6) and 8 to 32 base oligonucleotide markers were 5′ end labelled with [y^33P] ATP and T4 polynucleotide kinase. Reactions were boiled for 5 minutes after labelling to remove any PNK activity. Four picomoles of the labelled primer, 25 U terminal deoxynucleotidyl transferase and 64 μM dNTP or analogue triphosphate were incubated in 25 μl 100 mM cacodylate buffer pH7.2, 2 mM CoCl2 and 0.2 mM 2-mercaptoethanol for 90 minutes at 37° C. […] Autoradiography using Biomax film was carried out on the dry gel.

[2] = test system: 3′ to 5′ exonuclease-free version of Klenow fragment of DNA polymerase I (EFK); conditions: for primer extension product, analogue triphosphate as only nucleotide: Template 1, 20 μM or 80 μM analogue triphosphate alone, 37° C., 3 minutes
Experimental: b) A second primer extension assay was used to compare the triphosphate of the pyrrolo compound (1.14) (dSTP) with the triphosphate of the pyrazolo compound (4.11) as substrates for the 3′ to 5′ exonuclease-free version of Klenow fragment of DNA polymerase I (EFK). The assay used a ^33P 5′ end labelled 15 mer primer hybridised to one of two different 24 mer templates.
One picomole ^33P labelled primer was hybridised to 2 picomoles of template in ×2 Klenow buffer. To this was added either 4 μM dNTPαS, 20 μM or 80 μM analogue triphosphate or a mixture of 4 μM dNTPαS and 20 or 80 μM analogue triphosphate. Two units EFK and 2 mU inorganic pyrophosphatase were used per reaction. Primer alone, primer plus template, primer plus template plus enzyme controls were also carried out. The reactions were incubated at 37° C. for 3 minutes. Reactions were then stopped by the addition of formamide EDTA stop solution. Reaction products were separated on a 19% polyacrylamide 7M urea gel and the product fragments sized by comparison with a ^33P labelled 8 to 32 base oligonucleotide ladder after exposure to Kodak Biomax autoradiography film.

[3] = biological target: 3′ to 5′ exonuclease-free version of Klenow fragment (Escherichia coli, UniProt P00582, D355A/E357A); conditions: 50 μM dSTP, 37° C., 15 minutes, opposite T or C in template, not opposite A or G
Sequence of 3′ to 5′ exonuclease-free version of Klenow fragment (P00582 324-928 D355A/E357A): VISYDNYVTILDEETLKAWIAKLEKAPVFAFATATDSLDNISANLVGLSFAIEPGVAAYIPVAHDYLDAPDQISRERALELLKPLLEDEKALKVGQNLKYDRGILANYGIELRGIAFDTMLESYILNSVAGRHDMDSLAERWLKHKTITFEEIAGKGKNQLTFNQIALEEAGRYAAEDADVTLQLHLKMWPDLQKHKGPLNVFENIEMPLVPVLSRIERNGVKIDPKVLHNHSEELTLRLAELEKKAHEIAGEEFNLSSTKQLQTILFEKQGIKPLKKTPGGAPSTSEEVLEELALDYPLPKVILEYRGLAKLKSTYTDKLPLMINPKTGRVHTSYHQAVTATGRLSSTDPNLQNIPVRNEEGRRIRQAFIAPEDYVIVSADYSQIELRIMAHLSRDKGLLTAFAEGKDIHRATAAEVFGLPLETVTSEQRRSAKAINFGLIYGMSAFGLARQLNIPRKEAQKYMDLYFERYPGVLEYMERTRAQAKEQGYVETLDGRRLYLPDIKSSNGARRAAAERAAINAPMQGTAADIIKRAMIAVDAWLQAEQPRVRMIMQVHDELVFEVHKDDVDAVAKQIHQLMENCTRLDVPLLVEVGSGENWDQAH
Experimental: (§1) a) The incorporation of dSTP into DNA by DNA polymerases was examined in primer extension assays. […] Each reaction contained 1 pmol of a 24-mer oligonucleotide: 5′ […] (SEQ ID NO. 1) annealed to 0.25 pmol of a complementary 20-mer oligonucleotide 5′ […] (SEQ ID NO. 2) which was labelled at the 5′ end with 32P, and 1 μl of 10×buffer (for Taq polymerase: 500 mM KCl, 100 mM Tris pH 9 at room temperature, 1% Triton-X 100, 15 mM MgCl2; for the other two enzymes: 50 mM MgCl2, 100 mM Tris pH 7.5 at room temperature, 75 mM DTT). Normal dNTPs, in various combinations, were added, as required, to 50 μM final concentration; dSTP was also used at 50 μM final concentration.
(§2) For each enzyme four reactions were performed:
(§3) iv) plus dSTP, TTP and dCTP.
(§4) A single unit of the appropriate polymerase was added to start each of the reactions; these were incubated for 15 minutes (at 72° C. under mineral oil for Taq, at 37° C. for Pol I derivatives) before being terminated by the addition of 5 μl of termination mix (95% formamide, 20 mM EDTA, 0.05% Bromophenol Blue, 0.05% Xylene Cyanol FF). The reactions were heated to 70° C. for ten minutes before electrophoresis on a 20% polyacrylamide/7M urea gel, which was then exposed to autoradiography film.

Taq polymerase = biological target: T1, Taq polymerase (Thermus aquaticus, UniProt P19821); test: Primer extension assay, incorporation of dSTP into DNA by Taq polymerase; assay type: biochemical; conditions: 50 μM dSTP, 72° C., 15 minutes, opposite T or C in template, not opposite A or G
T1 construct: purchased Promega
T1 sequence (P19821 whole entry): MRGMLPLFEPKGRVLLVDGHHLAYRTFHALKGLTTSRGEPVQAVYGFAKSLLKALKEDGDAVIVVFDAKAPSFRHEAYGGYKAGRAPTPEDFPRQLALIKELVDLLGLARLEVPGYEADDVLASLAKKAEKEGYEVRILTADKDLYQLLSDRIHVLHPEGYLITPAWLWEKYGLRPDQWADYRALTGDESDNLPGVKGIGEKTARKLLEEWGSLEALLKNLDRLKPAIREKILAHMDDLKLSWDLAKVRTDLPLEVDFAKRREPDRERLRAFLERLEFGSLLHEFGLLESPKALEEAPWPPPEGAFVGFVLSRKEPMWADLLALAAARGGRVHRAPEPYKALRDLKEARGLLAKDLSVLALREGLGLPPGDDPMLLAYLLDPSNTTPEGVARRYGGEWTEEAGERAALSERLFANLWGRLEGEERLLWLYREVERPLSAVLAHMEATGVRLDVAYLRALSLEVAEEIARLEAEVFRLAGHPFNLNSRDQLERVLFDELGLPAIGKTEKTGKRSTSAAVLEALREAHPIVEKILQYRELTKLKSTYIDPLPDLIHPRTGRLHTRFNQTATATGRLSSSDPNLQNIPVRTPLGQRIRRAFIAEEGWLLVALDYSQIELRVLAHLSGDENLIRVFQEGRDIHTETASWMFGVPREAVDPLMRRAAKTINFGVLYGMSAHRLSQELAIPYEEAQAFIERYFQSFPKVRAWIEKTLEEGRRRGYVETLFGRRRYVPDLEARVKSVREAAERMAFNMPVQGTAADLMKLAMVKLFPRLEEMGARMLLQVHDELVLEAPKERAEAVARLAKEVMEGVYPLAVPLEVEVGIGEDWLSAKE
Experimental: as §1, §2, §3, §4

[4] = test system: ThermoSequenase DNA polymerase; test: Cycle sequencing reactions with radiolabelled terminators; assay type: biochemical; conditions: for length of sequence obtained: dSTP 40 μM in place of dATP ("A" mix), dITP 37.5 μM or 8-oxo-dGTP 160 μM in place of dGTP
Experimental: The incorporation of dSTP and the pyrazolo compound (4.11) into DNA by ThermoSequenase™ DNA polymerase was examined in cycle sequencing reactions.
The following nucleotide mixes were made up:
a) Standard dNTP mix 7.5 μM dATP, dCTP, dGTP, dTTP
b) Standard dITP mix 7.5 μM dATP, dCTP, dTTP and 37.5 μM dITP
c) 8-oxo-dGTP mix 7.5 μM dATP, dCTP, dTTP and 160 μM 8-oxo-dGTP
d) dSTP “A” mix 7.5 μM dCTP, dGTP, dTTP and 40 μM dSTP
e) Compound (4.11) “A” mix 7.5 μM dCTP, dGTP, dTTP and 40 μM compound (4.11)
f) dSTP “G” mix 7.5 μM dATP, dCTP, dTTP and 80 μM dSTP
g) Compound (4.11) “G” mix 7.5 μM dATP, dCTP, dTTP and 80 μM compound (4.11)
The following reaction master mix was made up:
All reagents were from ThermoSequenase radiolabelled terminator cycle sequencing kit (US79750 Amersham life Science). [α^33P] ddNTP's were from Amersham Pharmacia Biotech (code AH9539).
All reactions were overlayed with mineral oil and then cycled as follows:
The reactions were then heated at 95° C. for 2 minutes before loading onto a 6% polyacrylamide 7M urea gel. The gel was run at 48 mA for 90 minutes. After fixing in 10% acetic acid/10% methanol the gel was dried and exposed to Kodak Biomax autoradiography film.

[5] = biological target: T2, Klenow fragment of E. coli DNA polymerase I (Escherichia coli, UniProt P00582); test: Primer extension assay, incorporation of dSTP into DNA by Klenow fragment; assay type: biochemical; conditions: 50 μM dSTP, 37° C., 15 minutes, opposite T or C in template, not opposite A or G
T2 construct: the Klenow fragment of E. coli DNA polymerase I (Boehringer Mannheim); purchased Boehringer Mannheim
T2 sequence (P00582 324-928): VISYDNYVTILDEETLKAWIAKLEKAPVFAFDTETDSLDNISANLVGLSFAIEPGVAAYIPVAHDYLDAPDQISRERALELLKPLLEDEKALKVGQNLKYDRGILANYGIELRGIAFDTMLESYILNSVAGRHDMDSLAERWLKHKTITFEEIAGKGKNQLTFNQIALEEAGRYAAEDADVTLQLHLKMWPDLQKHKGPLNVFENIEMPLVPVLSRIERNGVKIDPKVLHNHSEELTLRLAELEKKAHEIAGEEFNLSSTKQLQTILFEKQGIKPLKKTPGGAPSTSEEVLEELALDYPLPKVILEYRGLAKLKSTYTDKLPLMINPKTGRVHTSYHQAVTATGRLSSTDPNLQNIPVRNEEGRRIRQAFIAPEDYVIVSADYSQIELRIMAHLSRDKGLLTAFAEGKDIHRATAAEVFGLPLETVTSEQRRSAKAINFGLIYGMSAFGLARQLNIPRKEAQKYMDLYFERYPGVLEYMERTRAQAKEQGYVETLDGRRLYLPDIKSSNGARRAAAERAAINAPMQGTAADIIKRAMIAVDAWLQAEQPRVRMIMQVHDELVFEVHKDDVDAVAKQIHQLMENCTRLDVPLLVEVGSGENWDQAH
Experimental: as §1, §2, §3, §4

- length of tail added to 15 mer primer [1]: predominantly by a single base
Molecule: 1-(2′-deoxy-5′-O-triphosphate-ribofuranosyl)-pyrazolo[3,4-d]pyrimidine[2,3-c]dihydro-oxazepine [Compound 4.11]

Molecule: 9-(2′-Deoxy-5′-O-triphosphate-ribofuranosyl)-pyrrolo[4,3,2-de]pyrimido[4,5-c]dihydro-oxazepine [dSTP]
- native base in whose place the analogue is incorporated ([2]; Template 1): efficiently incorporated in place of both G and A
- primer extension product, analogue triphosphate as only nucleotide [2]: +3 product
- native base in whose place the analogue is incorporated ([2]; Template 2): efficiently incorporated as a single G but that multiple additions as G are slow
- primer extension products with mixture of dTTPαS and analogue triphosphate ([2]; Template 2, no +1 product): +2, +3 and +5 products
- incorporation of dSTP into DNA [3]: can incorporate dSTP as either dGTP or as dATP
- incorporation of dSTP into DNA (Taq polymerase): can incorporate dSTP as either dGTP or as dATP
- length of sequence obtained ([4]; M13 mp18 template, 10 cycles): > 250 bases
- quality as polymerase substrate ([4]; conclusion from cycle sequencing, compared with dITP): very good polymerase substrate
- length of tail added to 15 mer primer [1]: intermediate in size between those of dATP and dGTP
- incorporation of dSTP into DNA [5]: can incorporate dSTP as either dGTP or as dATP

Molecule: Nc1nc2c([nH]c(=O)n2[C@H]2C[C@H](O)[C@@H](COP(=O)(O)OP(=O)(O)OP(=O)(O)O)O2)c(=O)[nH]1 [8-oxo dGTP, 8-oxo-dGTP]
- length of sequence obtained ([4]; M13 mp18 template, 10 cycles): 15-20 bases

Molecule: O=P(O)(O)OP(=O)(O)OP(=O)(O)OCC1OC(n2nc3c4c(ncnc42)NOCC3)CC1O (stereo not shown) [Compound 4.11, 1-(2′-deoxy-5′-O-triphosphate-ribofuranosyl)-pyrazolo[3,4-d]pyrimidine[2,3-c]dihydro-oxazepine]
- further extension after incorporation of two analogue residues ([2]; Template 1): did not occur
- native base in whose place the analogue is incorporated ([2]; Template 1): behaving as A
- primer extension product, analogue triphosphate as only nucleotide [2]: did not extend
- primer extension product in the presence of dGTP ([2]; Template 1, analogue triphosphate plus dGTP): +3 product
- effect of incorporation of two analogue residues ([2]; Template 2): resulted in termination
- native base in whose place the analogue is incorporated ([2]; Template 2): behaved as A rather than G

- length of tail added to 15 mer primer [1]: greater than 100 bases
Molecule: Nc1ncnc2c1ncn2[C@H]1C[C@H](O)[C@@H](COP(=O)(O)OP(=O)(O)OP(=O)(O)O)O1 [dATP, reference compound]

- length of tail added to 15 mer primer [1]: ~50 bases
Molecule: Nc1nc2c(ncn2[C@H]2C[C@H](O)[C@@H](COP(=O)(O)OP(=O)(O)OP(=O)(O)O)O2)c(=O)[nH]1 [dGTP, reference compound]

Molecule: O=c1[nH]cnc2c1ncn2[C@H]1C[C@H](O)[C@@H](COP(=O)(O)OP(=O)(O)OP(=O)(O)O)O1 [dITP]
- band intensities of sequence ([4]; M13 mp18 template, 10 cycles, autoradiography): uneven band intensities especially in the G track
- length of sequence obtained ([4]; M13 mp18 template, 10 cycles): < 200 bases
